Laboratory results reported in PubChem BioAssay (NCI).
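All cell lines were grown in 96-well plates and treated with compound for 48 hours. GI50 marks 50% less growth. TGI marks complete inhibition of growth.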

Tests used:
Test in all cases: NCI-60 cell line screen, 48 h
HOP-62 NSCLC = tested on: HOP-62 NSCLC
K-562 leukemia = tested on: K-562 leukemia
NCI-H226 lung = tested on: NCI-H226 lung
OVCAR-3 ovarian = tested on: OVCAR-3 ovarian
SK-MEL-28 melanoma = tested on: SK-MEL-28 melanoma
ACHN renal = tested on: ACHN renal
CAKI-1 renal = tested on: CAKI-1 renal
DU-145 prostate = tested on: DU-145 prostate
MDA-MB-231 breast = tested on: MDA-MB-231 breast
SR leukemia = tested on: SR leukemia

| SMILES | TGI (HOP-62 NSCLC) [µM] | TGI (K-562 leukemia) [µM] | TGI (NCI-H226 lung) [µM] | TGI (OVCAR-3 ovarian) [µM] | TGI (SK-MEL-28 melanoma) [µM] | GI50 (ACHN renal) [µM] | TGI (ACHN renal) [µM] | GI50 (CAKI-1 renal) [µM] | TGI (CAKI-1 renal) [µM] | GI50 (DU-145 prostate) [µM] | TGI (DU-145 prostate) [µM] | GI50 (HOP-62 NSCLC) [µM] | GI50 (K-562 leukemia) [µM] | GI50 (MDA-MB-231 breast) [µM] | TGI (MDA-MB-231 breast) [µM] | GI50 (NCI-H226 lung) [µM] | GI50 (OVCAR-3 ovarian) [µM] | GI50 (SK-MEL-28 melanoma) [µM] | GI50 (SR leukemia) [µM] | TGI (SR leukemia) [µM] |
| --- | --- | --- | --- | --- | --- | --- | --- | --- | --- | --- | --- | --- | --- | --- | --- | --- | --- | --- | --- | --- |
| O=[P+](O)c1cc2ccccc2c2ccccc12 | > 100 | > 100 | > 100 | > 100 | > 100 |  |  |  |  |  |  |  |  |  |  |  |  |  |  |  |
| COc1cc(-c2csc(NC(=O)Nc3cc(C(F)(F)F)cc(C(F)(F)F)c3)n2)cc(OC)c1OC | 6.36 | 12 | 12 | 10.6 | 12.6 | 2.78 | 10.6 | 2.88 | 12.1 | 3.6 | 18.3 | 2.11 | 1.92 | 1.59 | 3.92 | 2.87 | 2.39 | 3.02 |  |  |
| CC1(C)CCC[C@]2(C)c3cc(O)ccc3CC[C@@H]12 |  | 29.5 | 35.4 | 34.3 | 37 | 18.1 | 33.5 | 19.5 | 35.9 | 16.4 | 30.6 |  | 10.9 | 16.2 | 30.4 | 18.2 | 17 | 19.6 | 8.72 | > 100 |
| Clc1ccc(C(c2ccc(Cl)cc2)N2CCNCC2)cc1 | 3.71 | 3.76 |  | 4.13 | 3.45 |  | 5.74 |  | 17.4 |  | 7.07 |  |  |  | 4.4 |  |  |  |  | 4.41 |
| COc1ccc2nc(NCN3C(=O)c4ccccc4C3=O)sc2c1 | > 100 | > 100 |  | > 100 | > 100 |  | > 100 |  |  |  | > 100 |  |  |  | > 100 |  |  |  |  |  |
| CN(C(=O)C12C3(C(=O)C(C)(C)C)C4C5(C#N)C3C1(C(=O)C(C)(C)C)C5C42C(=O)C(C)(C)C)C(C)(C)C (configuration not stated) | > 50 | > 50 | > 50 | > 50 | > 50 |  | > 50 |  | > 50 |  |  |  |  |  |  |  |  |  |  | > 50 |
| N#Cc1ccc(C2C3=C(CCCC3=O)OC3=C2C(=O)c2ccccc2C3=O)cc1 (configuration not stated) | 3.78 |  | 4.62 | 0.711 | 3.3 | 1.55 | 2.89 | 1.88 | 3.93 | 1.67 | 3.07 | 1.95 |  | 0.447 | 1.83 | 2.02 | 0.27 | 1.82 | 3.47 | > 100 |
| COc1ccc(-c2nnc(-c3c(C)n(C)n(-c4ccccc4)c3=O)o2)cc1 | > 100 | > 100 | > 100 | > 100 | > 100 |  | > 100 |  |  |  |  |  |  |  |  |  |  |  |  | > 100 |
| O=C1C(Cl)=C(Nc2cccc(O)c2)C(=O)N1Cc1ccc(Cl)cc1 | 23 | 4.52 | 4.91 | 5.86 | 23 |  |  | 1.74 | 10.1 | 5.48 | 24.1 | 4.55 | 1.36 | 1.1 | 5.64 | 1.21 | 1.43 | 4.93 | 0.358 | 14.8 |
| CCn1c2ccc(C(=O)CCCN(C)C)cc2c2cc(C(=O)CCCN(C)C)ccc21 | 3.48 | 32.3 | 8.61 | 6.72 | 18.3 |  | 6.06 |  | 7.42 |  | 8.34 |  |  |  | 3.37 |  |  |  |  |  |
| Cc1ccc(S(=O)(=O)C2c3nc4ccccc4cc3-c3nc4ccccc4nc32)cc1 (configuration not stated) | > 100 | > 100 |  | > 100 | > 100 |  | > 100 |  | > 100 |  |  |  |  |  |  |  |  |  |  | > 100 |
| N#Cc1ccc(Nc2cnc3ccc(N)cc3n2)cc1 | > 100 | > 100 | > 100 | > 100 | > 100 |  | > 100 |  | > 100 |  |  |  |  |  |  |  |  |  |  | > 100 |
| O=C(O)c1ccc([S-])cc1.[Au+].c1ccc(CN2[CH-]N(Cc3ccccc3)C(c3ccccc3)=C2c2ccccc2)cc1 | 1.73 | 1.67 |  | 1.28 | 1.71 | 0.332 | 1.28 |  |  | 0.526 | 1.74 | 0.416 | 0.33 | 0.304 | 1.18 |  | 0.373 | 0.43 | 0.429 | 2.76 |
| Cc1ccc(C(=O)/C(=C\c2ccc([N+](=O)[O-])cc2)S(=O)Cc2ccc(F)cc2)cc1 (configuration not stated) | 6.3 |  | 13.1 | 2.96 | 3.59 | 1.86 | 3.6 | 1.77 | 3.84 | 1.49 | 2.86 | 2.35 |  | 1.83 | 3.68 | 3.48 | 1.57 | 1.82 | 0.703 | 12.6 |
| CCCCCCCCC(O)C#CC(N)=O (configuration not stated) |  | 75.4 | 25.6 | 20.5 | 31.8 |  | 31 |  | 32.3 |  |  |  |  |  |  |  |  |  |  | 52.9 |
| O=c1nc(NC(c2ccccc2)(c2ccccc2)c2ccccc2)ccn1CCO | > 100 | > 100 | > 100 | > 100 | > 100 |  | > 100 |  |  |  |  |  |  |  |  |  |  |  |  | > 100 |
| CCC(=O)C(C)C(=O)C(=O)C(=O)OC (configuration not stated) | > 100 | > 100 | > 100 | > 100 | > 100 |  | > 100 |  | > 100 |  |  |  |  |  |  |  |  |  |  | > 100 |
| COc1ccc(C2=Nc3c/c(=C\c4c(O)[nH]c5ccc(Cl)cc45)ccc3=N2)cc1 | 4.02 | 6.29 | 37 | 2.91 | 5.13 | 1.83 | 3.47 |  |  | 1.63 | 3.17 | 1.82 | 1 |  |  | 13.8 | 1.53 | 1.59 | 0.693 | 3.4 |
| Nc1nc(NC2C=C(CO)C(O)C2O)c([N+](=O)[O-])c(=O)[nH]1 (configuration not stated) | > 100 | > 100 | > 100 | > 100 | > 100 |  | > 100 |  | > 100 |  |  |  |  |  |  |  |  |  |  | > 100 |
